Converted amounts (≈) assume the structure as drawn.
Tests used:
[1] = system: Mycobacterium tuberculosis; assay: Alamar MIC; assay type: cell-based; details: TAACF
[2] = system: Mycobacterium tuberculosis XDR strains; assay: microbe, parasite or virus in culture; assay type: cell-based
EMB-resistant Mtb = details: cited from earlier work

Row | SMILES | MIC ([1]; ATCC35822, INH-resistant, ATCC 35822, Alamar) [µg/mL] | MIC ([1]; ATCC35838, RIF-resistant, ATCC 35838, Alamar) [µg/mL] | MIC ([1]; CIP-resistant, Alamar) [µg/mL] | MIC ([1]; EMB-resistant, Alamar) [µg/mL] | MIC ([1]; KAN-resistant, Alamar) [µg/mL] | MIC ([2]; Mycobacterium tuberculosis) [µg/mL] | MIC ([2]; XDR, also EMB-resistant, strain 587W1, Microbroth) [µg/mL] | MIC on EMB-resistant Mtb (EMB-resistant Mtb) [µg/mL]
1 | CC(C)=CCC/C(C)=C/CNCCNC1C2CC3CC(C2)CC1C3 (centres unmarked) [SQ109, N-geranyl-N′-(2-adamantyl)ethane-1,2-diamine] | 0.78 (≈ 2.36 µM) | ≤ 0.39 | ≤ 0.39 | 0.78 (≈ 2.36 µM) | 0.78 (≈ 2.36 µM) | 0.2 (≈ 0.605 µM) | 0.20 (≈ 0.605 µM) | –
2 | CC[C@@H](CO)NCCN[C@@H](CC)CO [EMB, ethambutol] | – | – | – | – | – | – | – | 184 (≈ 901 µM)

From article PMC3480206 (Future microbiology, 2012)
